5 compounds from patent US4980349A, “Sulphonamides derived from diarylmethanes, the processes for preparing them and pharmaceutical compositions containing them” (SANOFI, priority 1986, dated 1990) can be followed below.

Data set [1] concerns thromboxane synthetase. Put plainly: TXB2 production in human platelet suspension (thromboxane synthetase). Type of data set: cell-based. To be noted: human platelets, arachidonic acid 5 μg/ml, 37° C., read-out: IC50, inhibition of the production of TXB2. How it is done: The platelets are incubated with arachidonic acid (5 μg/ml) in the presence of increasing doses of test products (10^-6l M to 5×10^-5 M). Platelets stimulated by arachidonic acid (AA) manufacture a large amount of thromboxane A2 (TXA2), which can be measured radioimmunologically in the form of a stable metabolite TXB2.
The assay of the amount of TXB2 in the medium is performed after a 1- to 15- minute incubation at 37° C., the measurements being made in comparison with a control suspension which has not been incubated with the test products.
Results: These are expressed as IC50, that is to say as the concentration of the test product which permits 50% inhibition of the production of TXB2.

The next data set can be described thus: Oral LD50 in rats. Conditions: rat, in vivo, male Wistar rats, 200-400 g, 14 days observation, read-out: approximate oral LD50. How it is done:
(§1) The compounds were suspended in a 3% strength solution of gum arabic so as to supply, in a volume of 2 ml for the rats, the equivalent of 50, 100, 200, 400 and 800 mg/kg, and, in a volume of 1 ml for the mice, 100, 200, 400, 800 and 1,600 mg/kg and, for 1573 and 1579, 3,200 mg/kg.
(§2) Gavage was performed by means of a metal tube, on batches of 5 animals for each series.
(§3) The animals were observed daily for 14 days.

For data set [2], the system named is rat hind foot kaolin-induced oedema. Put plainly: Kaolin-induced arthritis test, first experiment (decrease in inflammation, foot volume). Type of data set: in vivo. To be noted: 1 h before kaolin, Table IX, read-out: percentage decrease in the inflammation. Summed up:
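Kaolin (0.05 ml of sterile 10% suspension) injected into metatarsal flexor sheath of rat hind foot; compounds given orally by stomach tube 1 h before. Foot volume measured by plethysmometer during early oedema (maximal 4–6 h). Value is % decrease in inflammation versus controls, mean of 10 animals per dose.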

For data set [3], the system named is rat hind foot carragheenin-induced oedema. In words: Carragheenin-induced oedema test. Type of data set: in vivo. To be noted: 3 h, read-out: percentage inhibition of the inflammation; for change in vivo at 25 mg/kg: 25 mg/kg oral; for change in vivo at 50 mg/kg: 50 mg/kg oral; for change in vivo at 100 mg/kg: 100 mg/kg oral.
Data set [4] has as its system thromboxane synthetase. In words: TXB2 production in human glomeruli (renal preparation model). Type of data set: cell-based. To be noted: arachidonic acid 5 ug/ml. Here is the method:
Human glomeruli synthesize both thromboxanes, via thromboxane synthetase, and prostaglandins, via prostacyclin synthetase. The experiment consists in stimulating glomerular cells with arachidonic acid (5 ug/ml) and in assaying radioimmunologically the amount of thromboxane B2 (TXB2) and prostacyclin (PGI2) produced in the presence of increasing concentrations of test products (10^-6 M to 5×10^-5 M).
As for the previous model, the results are expressed as IC50 in comparison with a control suspension.

The nature of the next data set: Oral LD50 in mice. To be noted: mouse, in vivo, female Swiss CF mice, 20 g, 14 days observation, read-out: approximate oral LD50. Here is the method:
as §1, §2, §3

Data set [5] has as its system biosynthesis of leukotrienes C4 (LTC4), human polymorphonuclear leukocytes. Put plainly: LTC4 production in human polymorphonuclear leukocytes. To be noted: Leukocyte, 0.25 h, ionophore A 23187 5 μM, 15 min, 37° C., read-out: IC50, inhibition of the production of LTC4. Type of data set: cell-based. How it is done: Human polymorphonuclear Leukocytes are stimulated by calcium ionophore A 23187 (Calbiochem, 5 μM), in the presence or absence of the test products.
After 15 minutes' incubation at 37° C., assay of the leukotrienes C4 (LTC4) is performed radioimmunologically.
The results are expressed as IC50, the concentration producing 50% inhibition of the production of LTC4, by comparison with a control suspension which has not been incubated in the presence of the test products.

Data set [6] has as its system rat hind foot kaolin-induced arthritis. In words: Kaolin-induced arthritis test, second experiment, chronic phase (weight of the foot at the 12th hour). To be noted: po, 12 h, Table IXb; for change in vivo at 25 mg/kg / change in vivo at 50 mg/kg / change in vivo at 100 mg/kg: 12th hour, read-out: percentage significant decrease in the weight of the treated foot; for ED50: foot weight, read-out: 50% active dose. Type of data set: in vivo. How it is done: The […] of 0.05 ml of a sterile 10% strength suspension of kaolin into the metatarsal flexor sheath of the hind foot of a rat initially induces an oedematous reaction. An inflammatory arthritis then forms.
The test products are administered orally (stomach tube) one hour before the injection of the kaolin.
In a second experiment, a more elaborate study was performed in order to ascertain the effect of the products, on the one hand on the acute phase of the inflammatory reaction (measured by the volume of the foot at the 8th hour), and on the other hand on the chronic phase (activity measured by the weight of the foot at the 12th hour).
As in the previous experiment, ketoprofen was used as the comparative product: […]

For another data set, the system named is 5-lipoxygenase. In words: Production of LTB4 and 5-HETE by human leukocytes incubated with arachidonic acid. Conditions: ionophore A 23187 5 μM, arachidonic acid 10 μg/ml. Type of data set: cell-based. Here is the method:
Human polymorphonuclear leukocytes suspended with arachidonic acid and stimulated by calcium ionophore produce leukotrienes B4 (LTB4).
The test consists in incubating fresh human leukocytes with arachidonic acid at a dose of 10 μg/ml to which a tracer dose of tritium-labelled arachidonic acid has been added. The leukocytes are stimulated with calcium ionophore A 23187 (Calbiochem, 5 μM) and the amount of 5-hydroxyeicosatetraenoic acid (5-HETE) and LTB4 produced is then assayed by HPLC.
5-HETE is the metabolite produced from arachidonic acid by 5-lipoxygenase, and from which LTB4 is produced by the action of an isomerase.
The results are expressed as an integration of the surface of the peak obtained in HPLC by comparison with that obtained with control leukocytes which have not been incubated with the test products.
The results in brackets are expressed as a percentage inhibition of the production of 5-HETE and LTB4.

Molecules are shown by their SMILES. Read-outs that look alike come from different tables or passages of the source.

Take `O=C(O)CCCCCCCCCCNS(=O)(=O)c1ccc(Cl)cc1C(=O)c1ccccc1` [Compound 1572, 11-(2-benzoyl-4-chlorobenzenesulphonamido)undecanoic acid]: the IC50 (as a rule, the concentration that gives 50% inhibition) in the data set on thromboxane synthetase [1] came to 12 µM; with thromboxane synthetase [4] it was 7 µM. Besides, the figures for the LD50 at 336 h in “Oral LD50 in rats” and in the data set “Oral LD50 in mice” were above 800 mg/kg and above 1600 mg/kg, respectively. Further, the change in vivo at 25 mg/kg is -17% in data set [2] (25 mg/kg oral) and -18% in data set [3] (first experiment, Table X). For the same compound, the change in vivo at 50 mg/kg is -26% in [2] (50 mg/kg oral) and -25% in data set [3] (first experiment, Table X). For the same compound, the change in vivo at 100 mg/kg is -50% in [2] (100 mg/kg oral) and -49% in [3] (first experiment, Table X).

In the case of `O=C(O)CCCCCCCCCCNS(=O)(=O)c1ccc(Cl)cc1C(=O)c1ccccc1Cl` [Compound 1574, 11-[2-(2-chlorobenzoyl)-4-chlorobenzenesulphonamido]undecanoic acid], the IC50 in data set [5] amounted to 3 µM. The IC50 in the data set on thromboxane synthetase [1] was determined as 8 µM. In data set [6], the change in vivo at 25 mg/kg was -58 ± 5%, the change in vivo at 50 mg/kg was -60 ± 5%, the change in vivo at 100 mg/kg is -60 ± 5% and the ED50 amounted to 25 mg/kg. For the same compound, in data set [3] (second experiment, Table Xa), the change in vivo at 25 mg/kg is -40%, the change in vivo at 50 mg/kg was -43% and the change in vivo at 100 mg/kg is -45%. In addition, the IC50 with thromboxane synthetase [4] was 5 µM. Besides, the LD50 (usually the dose at which mortality reaches 50%) at 336 h in the data set “Oral LD50 in mice” was above 1600 mg/kg.

In the case of `O=C(O)CCCCCCCCCCCNS(=O)(=O)c1ccc(Cl)c(C(=O)c2ccccc2)c1` [Compound 1736, 12-(3-benzoyl-4-chlorobenzenesulphonamido)dodecanoic acid], the IC50 in data set [5] stood at 3 µM. Besides, the IC50 in the data set on thromboxane synthetase [1] was found to be 6.2 µM. In data set [6], the change in vivo at 25 mg/kg is -45 ± 5%, the change in vivo at 50 mg/kg is -55 ± 5%, the change in vivo at 100 mg/kg was -58 ± 5% and the ED50 was determined as 50 mg/kg. Moreover, in the data set on 5-lipoxygenase, the “5-HETE, integration of the surface of the HPLC peak” value is on record as 384; the “percentage inhibition of the production of 5-HETE (in brackets)” value is on record as 89.6%; the “percentage inhibition of the production of LTB4 (in brackets)” value is reported as 100%. Moreover, in [3] (second experiment, Table Xa), the change in vivo at 25 mg/kg was -45%, the change in vivo at 50 mg/kg was -48% and the change in vivo at 100 mg/kg is -55%. This compound also came in with an IC50 in the data set on thromboxane synthetase [4] of 2.6 µM.

Consider `O=C(O)CCCCCCCCCCNS(=O)(=O)c1ccc(Cl)cc1C(O)c1ccccc1Cl` (centres unmarked) [Compound 1796], for which, in data set [5], the IC50 turned out to be 1.7 µM. Moreover, the IC50 with thromboxane synthetase [1] is 7.8 µM. In data set [6], the change in vivo at 25 mg/kg is -50 ± 5%, the change in vivo at 50 mg/kg is -52 ± 5%, the change in vivo at 100 mg/kg is -58 ± 5% and the ED50 was 25 mg/kg. Moreover, in the data set with 5-lipoxygenase, the “5-HETE, integration of the surface of the HPLC peak” value was found to be 127 and the “LTB4, integration of the surface of the HPLC peak” value stood at 152. In [3] (second experiment, Table Xa), the change in vivo at 25 mg/kg is -45%, the change in vivo at 50 mg/kg was -48% and the change in vivo at 100 mg/kg is -55%. Also, the midpoint of inhibition in the data set on thromboxane synthetase [4], the IC50, lay at 3.2 µM.

As to `O=C(O)CCCCCCCCCCNS(=O)(=O)c1ccc(Cl)cc1Cc1ccccc1Cl` [Compound 1797], the IC50 in data set [5] is 1 µM. Further, in the data set with thromboxane synthetase [1], the IC50 turned out to be 5 µM. Further, in data set [6], the change in vivo at 25 mg/kg was -50 ± 5%, the change in vivo at 50 mg/kg is -58 ± 5%, the change in vivo at 100 mg/kg was -60 ± 5% and the ED50 is 25 mg/kg. Also, in data set [3] (second experiment, Table Xa), the change in vivo at 25 mg/kg is -45%, the change in vivo at 50 mg/kg is -48% and the change in vivo at 100 mg/kg was -55%. Besides, the IC50 in the data set with thromboxane synthetase [4] was determined as 4.4 µM.
